What all share (format): cell-based
One assay concerns Candida albicans. As to the kind of experiment: MIC by the tube test against Candida albicans (Table I). The text has this:
(§1) Table I illustrates the high activity of the compounds of this invention, using as examples the compounds numbered 5-25, which are compared to the known compounds 1-4, viz., the ethyl ester of 1-(1,2,3,4-tetrahydro-1-naphthyl)-imidazole-5-carboxylic acid (Etonam) and the commercially available 2-dimethylamino-6-(β-diethylaminoethoxy)-benzothiazole, dihydrochloride (Dimazol dihydrochloride), as well as N-(2-hydroxybenzyl)-imidazole and N-(4-hydroxybenzyl)-imidazole (Bull. Soc. Chim. France 1973, 1179). The MIC values were determined by the tube test.

Assay [1] deals with Trichophyton mentagrophytes. As to the kind of experiment: MIC by the tube test against Trichophyton mentagrophytes (Table I).
Source text: as §1

Another assay concerns Trichophyton rubrum. As to the kind of experiment: MIC by the tube test against Trichophyton rubrum (Table I).
Source text: as §1

Four molecules from patent US4006243A, “Amino-, mercapto- and -oxy-substituted-phenyl and -phenalkyl imidazoles” (Schering Aktiengesellschaft, priority 1974, dated 1977) can be followed below.

Take `CCN(CC)CCOc1ccc2nc(N(C)C)sc2c1.Cl.Cl` [Compound 2, 2-Dimethylamino-6-(β-diethylaminoethoxy)-benzothiazole, dihydrochloride]: the “Minimum Inhibitory Concentration MIC against Candida albicans” value in the assay on Candida albicans is “inactive”. Besides, in assay [1], the “Minimum Inhibitory Concentration MIC against Trichophyton mentagrophytes” value is “inactive”. The “Minimum Inhibitory Concentration MIC against Trichophyton rubrum” value in the assay on Trichophyton rubrum was “inactive”.
For `Oc1ccccc1Cn1ccnc1` [Compound 3, N-(2-Hydroxybenzyl)-imidazole], the “Minimum Inhibitory Concentration MIC against Candida albicans” value with Candida albicans is “inactive”. Besides, in assay [1], the “Minimum Inhibitory Concentration MIC against Trichophyton mentagrophytes” value was “inactive”.
Take `CCOC(=O)c1cncn1C1CCCc2ccccc21` (stereo not drawn) [Compound 1, 1-(1,2,3,4-Tetrahydro-1-naphthyl)-imidazole-5-carboxylic Acid Ethyl Ester]: the “Minimum Inhibitory Concentration MIC against Candida albicans” value with Candida albicans is “inactive”.
With `Oc1ccc(Cn2ccnc2)cc1` [Compound 4, N-(4-Hydroxybenzyl)-imidazole], in the assay with Candida albicans, the “Minimum Inhibitory Concentration MIC against Candida albicans” value is “inactive”. Moreover, the “Minimum Inhibitory Concentration MIC against Trichophyton mentagrophytes” value in assay [1] is “inactive”. Besides, the “Minimum Inhibitory Concentration MIC against Trichophyton rubrum” value with Trichophyton rubrum is “inactive”.
